Assay results published in US11168052B2, “Carbamate derivative compounds, processes for preparing them and their uses” (BIO-PHARM SOLUTIONS CO., LTD., priority 2016, dated 2021).

Columns and labels:
[1] = test system: ICR mice on hot plate; experiment: Hot-plate test; assay type: in vivo; details: Mus musculus, po, orally, withdrawal latency
Description: To examine the pain relief effect of the carbamate compounds, a hot-plate test was conducted in referring to Current Protocols in Neuroscience; Behavioral Neuroscience Unit 8.9.
ICR mice (male, 25-28 g; Orient Bio, Korea) were habituated before test (in test room) for 1 hour. Animals were fasted 2 hr before administration of compounds. Compounds were orally administered at the three dose, 10 ul/g, by bodyweight (n=4-6/group). All compounds were dissolved in a vehicle of 30% (v/v) PEG 400 or 20% (v/v) Tween 80. The control group was treated the vehicle without compounds.
0.25-2.0 hr after the administration of compounds, the mice were put on a hot plate pre-heated to 55±1 (Hu, X. et al, 2008), and then, the withdrawal latency time was measured (cut-off time: 30 sec) until the point when each mouse was taking a paw off from the plate, shaking, licking a paw or hind leg, or jumping from the plate.

[2] = test system: SNL model in rats; experiment: Antiallodynic activity on Chung model (SNL, spinal nerve ligation), von Frey test; assay type: in vivo, Sprague-Dawley rats; details: orally
From the text: Male Sprague-Dawley rats (100-130 g, Orient Bio, Korea) were habituated for 1 week before the experiment, and allowed free access to food and water throughout the experimentation. Room temperature and humidity were maintained at 24±2 and 50±10%, respectively. The neuropathic surgery (SNL, Spinal nerve ligation) model was done as described in Kim and Chung (1992). Briefly, an animal was put under gaseous anesthesia with isoflurane. The left lumber spinal nerve L5 and L6 were isolated and tightly ligated with 6-0 silk thread. […]
Tactile sensitivity (Mechanical allodynia) was evaluated using von Frey monofilaments before and after treatment, and animals were included in the study only if the withdrawal threshold value was less than 4 g. […] The tactile sensitivity for the ipsilateral hind paw was measured using the up-and-down method (Dixon, 1980) with seven von Frey monofilaments (0.4, 1, 2, 4, 6, 8, and 15 g) in 3 trials. […] The 50% paw withdrawal threshold for each paw was calculated using the following formula: [Xth]log=[vFr]log+ky where [vFr] is the force of the last von Frey used, k=0.2249 which is the average interval (in log units) between the von Frey monofilaments, and y is a value that depends upon the pattern of withdrawal responses (Dixon, 1980). […]

[3] = test system: CFA-induced pain model in rats; experiment: Antiallodynic activity on Complete Freund's Adjuvant (CFA)-induced inflammatory pain model; assay type: in vivo, Sprague-Dawley rats; details: Rattus norvegicus, ip, 50 mg/kg intraperitoneally, von Frey threshold relative to sham, 0.5 hr after administration, read-out: Efficacy of 50 mg/kg(%)
In short: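 Male Sprague-Dawley rats given 100 ul CFA intraplantar in the right hind paw; one week later, ipsilateral mechanical allodynia (baseline threshold <4 g required) assessed with von Frey up-and-down method, 50% withdrawal threshold by Dixon formula. Compounds 50 mg/kg i.p. in 30% PEG or 20% Tween 80, tested 0.5 h post-dose; values as % of sham.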

[4] = test system: MES (electroshock) seizure in rats; experiment: Anti-epilepsy activity, MES test in rats; assay type: in vivo, SD rats; details: Rattus norvegicus, po
In short: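 Male ICR mice (19–25 g) and male SD rats (100–130 g) dosed orally with compound in 20% Tween 80/saline, then shocked via corneal electrodes at peak time (mice 50 mA, rats 150 mA; 60 Hz, 0.2 sec). Three doses used; ED50 for seizure protection by Litchfield–Wilcoxon log-probit.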

In the case of NC(=O)O[C@@H]1CCc2cccc(Cl)c2[C@@H]1O [Example 1, (1S, 2R)-8-chloro-1-hydroxy-1,2,3,4-tetrahydronaphthalen-2-yl carbamate], the ED50 [1] is reported as 101 mg/kg, the ED50 ([2]; Rattus norvegicus, po, von Frey threshold relative to sham) is reported as 35.5 mg/kg and the response vs control in vivo at 50 mg/kg [3] is reported as 74.9%. It also gave an ED50 [4] of 5.9 mg/kg.

For NC(=O)O[C@@H]1c2c(Cl)cccc2CC[C@@H]1O [Example 19, (1R, 2S)-8-chloro-2-hydroxy-1,2,3,4-tetrahydronaphthalen-1-yl carbamate], the ED50 [1] was greater than 100 mg/kg, the SNL efficacy % ([2]; dose 30 mg/kg) was 30(17.8%) and the response vs control in vivo at 50 mg/kg [3] was 51.6%. The ED50 [4] was 4.6 mg/kg.
